The target of assay [1] is DNA-PK (Homo sapiens (Human), UniProt P78527). Nature of the assay: DNA-PK biochemical assay (Reaction Biology HotSpot kinase assay, 10 μM ATP). Summed up:
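Radiometric 33P-ATP kinase reaction in 20 mM Hepes pH 7.5, 10 mM MgCl2, 1 mM EGTA, 2 mM DTT, 1% DMSO. Compound preincubated with kinase and substrate 20 min at room temperature, then reaction run 2 h at room temperature after ATP addition. Activity read by P81 filter binding.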

The target of assay [2] is ATM (Homo sapiens (Human), UniProt Q13315). Nature of the assay: ATM biochemical assay (Reaction Biology HTRF kinase assay, 10 μM ATP). Summed up: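 HTRF kinase assay with N-terminal GST-tagged human p53 (aa2-393) substrate, 10 μM ATP, in 50 mM Hepes pH 7.5, 10 mM MnCl2, 1% DMSO. Enzyme preincubated with compound 30 min, reaction 2 h at room temperature. pS15 phosphorylation read by Eu-cryptate anti-p53-pS15/anti-GST-d2 HTRF (615/665 nm).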
Chain of ATM (Q13315 whole entry, the tested form may be a part): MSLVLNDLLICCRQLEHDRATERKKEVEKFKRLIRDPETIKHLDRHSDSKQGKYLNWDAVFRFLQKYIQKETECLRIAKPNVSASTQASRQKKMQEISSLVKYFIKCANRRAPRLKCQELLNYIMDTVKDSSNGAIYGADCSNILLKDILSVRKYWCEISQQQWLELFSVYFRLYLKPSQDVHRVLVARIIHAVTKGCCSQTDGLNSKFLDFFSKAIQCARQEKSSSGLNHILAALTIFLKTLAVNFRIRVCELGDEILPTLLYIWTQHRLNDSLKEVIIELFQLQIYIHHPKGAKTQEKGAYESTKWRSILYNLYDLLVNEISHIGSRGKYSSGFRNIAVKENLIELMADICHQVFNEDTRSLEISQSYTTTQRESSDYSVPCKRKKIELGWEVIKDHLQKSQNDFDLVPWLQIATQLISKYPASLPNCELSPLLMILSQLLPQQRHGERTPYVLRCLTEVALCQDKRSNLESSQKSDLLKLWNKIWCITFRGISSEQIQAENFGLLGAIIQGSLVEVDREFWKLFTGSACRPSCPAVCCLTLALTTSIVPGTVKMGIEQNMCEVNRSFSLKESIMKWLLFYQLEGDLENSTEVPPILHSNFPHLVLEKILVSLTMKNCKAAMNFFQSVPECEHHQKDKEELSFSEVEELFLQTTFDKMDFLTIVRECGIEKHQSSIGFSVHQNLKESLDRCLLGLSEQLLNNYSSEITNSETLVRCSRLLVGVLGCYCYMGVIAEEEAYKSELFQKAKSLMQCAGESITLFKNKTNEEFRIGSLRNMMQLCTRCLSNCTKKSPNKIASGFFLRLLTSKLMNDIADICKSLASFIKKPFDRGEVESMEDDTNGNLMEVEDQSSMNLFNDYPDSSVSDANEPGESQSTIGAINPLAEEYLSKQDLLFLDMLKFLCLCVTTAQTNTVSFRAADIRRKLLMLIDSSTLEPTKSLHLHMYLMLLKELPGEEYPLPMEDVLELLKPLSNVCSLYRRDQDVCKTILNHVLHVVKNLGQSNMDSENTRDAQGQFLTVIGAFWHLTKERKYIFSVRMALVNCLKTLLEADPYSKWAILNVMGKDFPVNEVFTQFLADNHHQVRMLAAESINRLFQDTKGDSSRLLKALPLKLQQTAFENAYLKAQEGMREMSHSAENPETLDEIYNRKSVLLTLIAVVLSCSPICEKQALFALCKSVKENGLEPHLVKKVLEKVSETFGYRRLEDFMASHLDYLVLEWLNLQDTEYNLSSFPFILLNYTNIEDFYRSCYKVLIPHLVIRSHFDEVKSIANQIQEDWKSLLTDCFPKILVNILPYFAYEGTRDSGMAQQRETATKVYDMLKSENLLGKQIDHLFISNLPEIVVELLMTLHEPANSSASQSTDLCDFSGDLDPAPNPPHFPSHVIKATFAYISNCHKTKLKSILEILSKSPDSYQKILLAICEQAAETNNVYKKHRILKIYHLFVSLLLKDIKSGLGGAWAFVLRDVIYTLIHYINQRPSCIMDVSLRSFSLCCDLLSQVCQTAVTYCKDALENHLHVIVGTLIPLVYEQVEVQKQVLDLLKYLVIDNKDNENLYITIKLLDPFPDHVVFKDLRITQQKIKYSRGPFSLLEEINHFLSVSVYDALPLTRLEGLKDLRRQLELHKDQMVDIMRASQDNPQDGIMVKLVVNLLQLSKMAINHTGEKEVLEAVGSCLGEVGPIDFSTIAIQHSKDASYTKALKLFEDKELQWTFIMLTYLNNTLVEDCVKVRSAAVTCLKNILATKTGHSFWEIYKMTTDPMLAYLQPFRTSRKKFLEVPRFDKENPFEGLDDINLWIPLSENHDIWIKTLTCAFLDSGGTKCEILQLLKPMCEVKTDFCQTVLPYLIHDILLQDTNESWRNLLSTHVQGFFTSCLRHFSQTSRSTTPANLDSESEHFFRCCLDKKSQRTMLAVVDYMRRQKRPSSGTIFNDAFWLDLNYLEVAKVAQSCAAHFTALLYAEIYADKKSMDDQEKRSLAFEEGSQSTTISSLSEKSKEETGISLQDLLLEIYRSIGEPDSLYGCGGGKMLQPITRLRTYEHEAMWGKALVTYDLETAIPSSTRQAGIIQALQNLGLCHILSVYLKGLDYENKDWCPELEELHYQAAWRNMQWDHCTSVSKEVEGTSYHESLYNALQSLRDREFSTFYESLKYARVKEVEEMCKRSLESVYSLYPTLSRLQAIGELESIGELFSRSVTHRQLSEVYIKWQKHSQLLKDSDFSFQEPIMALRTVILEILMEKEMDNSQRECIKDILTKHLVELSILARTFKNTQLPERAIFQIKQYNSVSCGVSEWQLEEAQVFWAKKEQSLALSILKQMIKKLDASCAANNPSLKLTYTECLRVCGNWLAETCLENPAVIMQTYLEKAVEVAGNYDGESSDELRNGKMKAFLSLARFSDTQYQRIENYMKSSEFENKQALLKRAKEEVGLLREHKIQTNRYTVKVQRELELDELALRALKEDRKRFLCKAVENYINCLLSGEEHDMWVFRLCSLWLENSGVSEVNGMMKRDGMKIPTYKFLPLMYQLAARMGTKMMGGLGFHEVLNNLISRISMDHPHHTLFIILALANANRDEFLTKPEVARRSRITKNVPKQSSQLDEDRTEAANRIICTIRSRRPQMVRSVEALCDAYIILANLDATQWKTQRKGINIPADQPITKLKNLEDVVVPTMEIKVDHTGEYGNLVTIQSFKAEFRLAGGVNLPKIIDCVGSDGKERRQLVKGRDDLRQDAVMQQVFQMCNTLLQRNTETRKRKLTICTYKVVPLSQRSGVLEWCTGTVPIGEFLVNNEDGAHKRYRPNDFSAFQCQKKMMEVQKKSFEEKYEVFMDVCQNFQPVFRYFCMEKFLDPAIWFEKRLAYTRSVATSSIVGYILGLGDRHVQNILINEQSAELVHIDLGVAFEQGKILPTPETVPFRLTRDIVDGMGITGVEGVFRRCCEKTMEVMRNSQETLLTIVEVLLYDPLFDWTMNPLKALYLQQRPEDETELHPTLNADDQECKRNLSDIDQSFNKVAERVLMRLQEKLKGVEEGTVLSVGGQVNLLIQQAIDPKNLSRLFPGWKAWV
(TR-FRET usually uses a lanthanide donor and a delayed reading to cut background.)

The target in assay [3] is PI3Kβ (Homo sapiens (Human), UniProt P42338). Nature of the assay: PI3Kβ biochemical assay (Reaction Biology ADP-Glo). The method, then:
Phosphoinositide 3-kinase R (PI3KP) Biochemical Assay using Reaction Biology's ADP-Glo Assay Platform:
Step 1: Lipid kinases: Reaction Biology Corporation (RBC) currently offers lipid kinases in ADP-Glo format
Step 2: Assay Description Assay principle: The kinase reactions utilize ATP and produce ADP as a byproduct. The ADP production is quantified by ADP-Glo luminescence detection. This is a 3-step reaction: First, the kinase reaction with lipid substrate is carried out in the presence of ATP, and the reaction is quenched and depleted remaining ATP with ADP-Glo™ reagent, and then finally ADP is converted to ATP which is measured using a luciferase/luciferin reaction.
Step 3: Assay Procedure: 1. Prepare kinase in freshly prepared Reaction Buffer, kinase without substrate is delivered to background wells; 2. Deliver substrate into the kinase solution and gently mix, deliver to assay wells; 3. Deliver compounds in 100% DMSO into the kinase reaction mixture by Acoustic technology (Echo550; nanoliter range), incubate for 20 min at room temperature; 4. Deliver ATP into the reaction mixture to initiate the reaction; 5. Incubate for 60 min at 30° C.; 6. Quench the reaction with ADP-Glo reagent and incubate for 40 min; 7. Add Detection Mixture and incubate for 30 min; 8. Measure luminescence.
Step 4: Data Analysis: The luminescence is converted into M ADP production based on ADP standard curves. The nonlinear regression to obtain the standard curve and IC50 values are performed using Graphpad Prism software.

Assay [4] concerns the target PI3Kδ (His-PIK3CD/PIK3R1, p110 delta/p85 alpha) (Homo sapiens (Human), UniProt O00329). Nature of the assay: PI3Kδ biochemical assay (HTRF/FRET probe). Format: binding. The method, then: Phosphoinositide 3-kinase (PI3K) Biochemical Assay: A solution was prepared containing 0.2 nM Anti-HIS-Terbium (Cisbio, 64CUSTAZU), 40 nM designed-probe and 1.0 nM His-PIK3CD/PIK3R1 (p110 delta/p85 alpha) in FRET Buffer (20 mM HEPES, 10 mM MgCl2, 0.015% Brij-35, 4 mM DTT, 0.05 mg/mL BSA).

Assay [5] addresses PI3Kα (His-PIK3CA/PIK3R1, p110 alpha/p85 alpha) (Homo sapiens (Human), UniProt P42336). Nature of the assay: PI3Kα biochemical assay (HTRF/FRET probe). Format: binding. The method, then: Phosphoinositide 3-kinase α (PI3Kα) Biochemical Assay: A solution was prepared containing 0.2 nM Anti-HIS-Terbium (Cisbio, 64CUSTAZU), 3.7 nM designed-probe and 1.0 nM His-PIK3CA/PIK3R1 (p110 alpha/p85 alpha) in FRET Buffer (20 mM HEPES, 10 mM MgCl2, 0.015% Brij-35, 4 mM DTT, 0.05 mg/mL BSA).

Where [6] appears, read: read-out: DNA-PK HotSpot 10 μM ATP IC50, class symbol.

pIC50: −log10 of the molar value. Read-outs that look alike come from different tables or passages of the source. Some results are limits rather than exact numbers.

This is an account of results in patent US20250263753A1, “BRIDGED CYCLE-BASED INHIBITORS OF DNA-DEPENDENT PROTEIN KINASE AND COMPOSITIONS AND APPLICATION IN GENE EDITING” (Juno Therapeutics, Inc., priority 2023, published 2025).

Chain of PI3Kβ (P42338 whole entry): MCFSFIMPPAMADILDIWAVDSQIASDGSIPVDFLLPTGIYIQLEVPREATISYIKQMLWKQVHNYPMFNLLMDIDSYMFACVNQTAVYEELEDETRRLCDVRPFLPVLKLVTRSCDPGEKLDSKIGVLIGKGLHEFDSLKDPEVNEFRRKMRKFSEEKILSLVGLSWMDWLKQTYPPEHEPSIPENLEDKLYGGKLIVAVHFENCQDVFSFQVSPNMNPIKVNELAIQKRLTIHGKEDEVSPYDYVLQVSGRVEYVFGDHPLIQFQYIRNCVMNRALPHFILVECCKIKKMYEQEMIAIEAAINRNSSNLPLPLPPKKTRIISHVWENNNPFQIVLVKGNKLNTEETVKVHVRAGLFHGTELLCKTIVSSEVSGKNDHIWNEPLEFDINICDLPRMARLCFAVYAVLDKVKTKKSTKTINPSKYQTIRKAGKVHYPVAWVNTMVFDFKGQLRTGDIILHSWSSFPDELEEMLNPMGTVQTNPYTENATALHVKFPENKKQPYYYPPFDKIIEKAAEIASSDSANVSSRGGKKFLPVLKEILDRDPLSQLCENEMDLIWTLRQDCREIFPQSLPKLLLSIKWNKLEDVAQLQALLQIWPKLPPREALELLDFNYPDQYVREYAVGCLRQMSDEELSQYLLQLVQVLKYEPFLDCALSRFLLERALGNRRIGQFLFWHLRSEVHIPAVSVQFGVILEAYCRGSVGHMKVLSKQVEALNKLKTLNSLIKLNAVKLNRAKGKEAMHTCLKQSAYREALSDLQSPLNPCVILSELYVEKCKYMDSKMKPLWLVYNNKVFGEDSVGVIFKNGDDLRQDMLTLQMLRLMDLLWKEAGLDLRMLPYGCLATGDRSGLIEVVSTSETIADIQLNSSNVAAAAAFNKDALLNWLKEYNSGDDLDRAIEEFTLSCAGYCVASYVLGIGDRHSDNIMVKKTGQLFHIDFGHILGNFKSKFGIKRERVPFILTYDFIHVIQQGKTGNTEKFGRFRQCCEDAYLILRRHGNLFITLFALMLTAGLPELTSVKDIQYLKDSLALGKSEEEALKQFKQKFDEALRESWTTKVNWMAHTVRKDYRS
Chain of PI3Kβ (P27986 whole entry partner): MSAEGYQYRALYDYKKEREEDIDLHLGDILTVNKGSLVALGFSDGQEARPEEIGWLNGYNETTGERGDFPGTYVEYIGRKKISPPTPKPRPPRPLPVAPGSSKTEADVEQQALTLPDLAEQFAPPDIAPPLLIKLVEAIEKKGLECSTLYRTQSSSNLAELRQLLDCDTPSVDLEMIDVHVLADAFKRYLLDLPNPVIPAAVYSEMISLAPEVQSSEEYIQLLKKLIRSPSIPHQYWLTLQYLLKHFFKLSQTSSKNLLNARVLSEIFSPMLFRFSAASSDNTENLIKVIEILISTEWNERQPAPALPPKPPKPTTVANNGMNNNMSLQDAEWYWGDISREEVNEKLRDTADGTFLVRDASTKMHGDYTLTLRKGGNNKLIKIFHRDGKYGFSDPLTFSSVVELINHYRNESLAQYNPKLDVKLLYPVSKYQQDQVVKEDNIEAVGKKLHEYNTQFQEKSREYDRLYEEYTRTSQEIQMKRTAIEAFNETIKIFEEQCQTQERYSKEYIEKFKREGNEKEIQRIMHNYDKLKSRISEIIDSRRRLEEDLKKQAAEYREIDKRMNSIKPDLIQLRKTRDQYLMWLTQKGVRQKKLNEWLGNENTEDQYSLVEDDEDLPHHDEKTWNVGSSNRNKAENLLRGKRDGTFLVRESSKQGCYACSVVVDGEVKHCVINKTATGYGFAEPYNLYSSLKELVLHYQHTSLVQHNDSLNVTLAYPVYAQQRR

The pIC50 is −log10 of the IC50, conventionally taken in molar units. Take `Cc1cc2ncnn2cc1Nc1ncc2c(n1)n(C13CC(F)(C1)C3)c(=O)n2C` [Compound 12, 9-(3-fluorobicyclo[1.1.1]pentan-1-yl)-7-methyl-2-((7-methyl-[1,2,4]triazolo[1,5-a]pyridin-6-yl)amino)-7,9-dihydro-8H-purin-8-one]: the pIC50 is over 9.00 in assay [1] (setting [6]); 6.00 to 7.00 in assay [2] (class symbol); at most 6.00 in assay [3] (class symbol); at most 6.00 in assay [4] (class symbol); at most 6.00 in assay [5] (class symbol).

`Cc1cc2ncnn2cc1Nc1ncc2c(n1)n([C@H]1C[C@@H]3CC[C@H]1C3)c(=O)n2C` [Compound 45, 9-((1S,2S,4R)-bicyclo[2.2.1]heptan-2-yl)-7-methyl-2-((7-methyl-[1,2,4]triazolo[1,5-a]pyridin-6-yl)amino)-7,9-dihydro-8H-purin-8-one]: the pIC50 in assay [1] (setting [6]) was over 9.00; in assay [2] (class symbol), 7.00 to 8.00; in assay [3] (class symbol) it was 6.00 to 7.00; in assay [4] (class symbol), at most 6.00; in assay [5] (class symbol) it was 6.00 to 7.00.

Take `Cc1cc2c(cc1Nc1ncc3c(n1)n(C1CC4CCC1CC4)c(=O)n3C)OCO2` (centres unmarked) [Compound 43, 9-((1s,4s)-bicyclo[2.2.2]octan-2-yl)-7-methyl-2-((6-methylbenzo[d][1,3]dioxol-5-yl)amino)-7,9-dihydro-8H-purin-8-one]: the pIC50 is over 9.00 in assay [1] (setting [6]); 6.00 to 7.00 in assay [2] (class symbol); at most 6.00 in assay [3] (class symbol); at most 6.00 in assay [4] (class symbol); at most 6.00 in assay [5] (class symbol).

Take `Cc1cc2c(cc1Nc1ncc3c(n1)n(C14CCC(O)(CC1)C4)c(=O)n3C)OCO2` [Compound 2, 9-(4-hydroxybicyclo[2.2.1]heptan-1-yl)-7-methyl-2-((6-methylbenzo[d][1,3]dioxol-5-yl)amino)-7,9-dihydro-8H-purin-8-one]: the pIC50 was over 9.00 in assay [1] (setting [6]); 6.00 to 7.00 in assay [2] (class symbol); at most 6.00 in assay [3] (class symbol); at most 6.00 in assay [4] (class symbol); at most 6.00 in assay [5] (class symbol).

With `Cc1cc2ncnn2cc1Nc1ncc2c(n1)n(C1CC3CCC1CC3)c(=O)n2C` (centres unmarked) [Compound 42, 9-((1s,4s)-bicyclo[2.2.2]octan-2-yl)-7-methyl-2-((7-methyl-[1,2,4]triazolo[1,5-a]pyridin-6-yl)amino)-7,9-dihydro-8H-purin-8-one], the pIC50 was over 9.00 in assay [1] (setting [6]); 7.00 to 8.00 in assay [2] (class symbol); 6.00 to 7.00 in assay [3] (class symbol); at most 6.00 in assay [4] (class symbol); 6.00 to 7.00 in assay [5] (class symbol).

For the molecule `Cc1cc2c(cc1Nc1ncc3c(n1)n([C@H]1C[C@@H]4CC[C@H]1C4)c(=O)n3C)OCO2` [Compound 46, 9-((1S,2S,4R)-bicyclo[2.2.1]heptan-2-yl)-7-methyl-2-((6-methylbenzo[d][1,3]dioxol-5-yl)amino)-7,9-dihydro-8H-purin-8-one], the pIC50 was over 9.00 in assay [1] (setting [6]); 6.00 to 7.00 in assay [2] (class symbol); at most 6.00 in assay [3] (class symbol); at most 6.00 in assay [4] (class symbol); at most 6.00 in assay [5] (class symbol).

For the molecule `Cc1cc2c(cc1Nc1ncc3c(n1)n(C14CC(F)(C1)C4)c(=O)n3C)OCO2` [Compound 13, 9-(3-fluorobicyclo[1.1.1]pentan-1-yl)-7-methyl-2-((6-methylbenzo[d][1,3]dioxol-5-yl)amino)-7,9-dihydro-8H-purin-8-one], the pIC50 in assay [1] (class symbol) is 8.00 to 9.00; in assay [2] (read-out: ATM HTRF 10 μM ATP IC50, class symbol), at most 6.00; in assay [3] (class symbol), at most 6.00; in assay [4] (class symbol), at most 6.00; in assay [5] (class symbol), at most 6.00.

For `Cc1cc2ncnn2cc1Nc1ncc2c(n1)n(C13CCC(O)(CC1)C3)c(=O)n2C` [Compound 1, 9-(4-hydroxybicyclo[2.2.1]heptan-1-yl)-7-methyl-2-((7-methyl-[1,2,4]triazolo[1,5-a]pyridin-6-yl)amino)-7,9-dihydro-8H-purin-8-one], the pIC50 was over 9.00 in assay [1] (class symbol); 10.15 in assay [1] (read-out: DNA-PK HotSpot 10 μM ATP IC50, numeric value); 7.00 to 8.00 in assay [2] (class symbol); 7.06 in assay [2] (read-out: ATM HTRF 10 μM ATP IC50, numeric value); 6.00 to 7.00 in assay [3] (class symbol); 6.18 in assay [3] (numeric value). Moreover, the pIC50 in assay [4] (class symbol) is at most 6.00; in assay [4] (numeric value), 5.74; in assay [5] (class symbol), 6.00 to 7.00; in assay [5] (numeric value) it was 6.89.

Turning to `COC12CCC(n3c(=O)n(C)c4cnc(Nc5cc6c(cc5C)OCO6)nc43)(CC1)C2` [Compound 7, 9-(4-methoxybicyclo[2.2.1]heptan-1-yl)-7-methyl-2-((6-methylbenzo[d][1,3]dioxol-5-yl)amino)-7,9-dihydro-8H-purin-8-one], the pIC50 in assay [1] (setting [6]) is over 9.00; in assay [2] (class symbol), 6.00 to 7.00; in assay [3] (class symbol) it was at most 6.00; in assay [4] (class symbol), at most 6.00; in assay [5] (class symbol), 6.00 to 7.00.

Take `Cc1cc2ncccc2cc1Nc1ncc2c(n1)n(C13CC(F)(C1)C3)c(=O)n2C` [Compound 11, 9-(3-fluorobicyclo[1.1.1]pentan-1-yl)-7-methyl-2-((7-methylquinolin-6-yl)amino)-7,9-dihydro-8H-purin-8-one]: the pIC50 is over 9.00 in assay [1] (setting [6]); 7.00 to 8.00 in assay [2] (class symbol); 6.00 to 7.00 in assay [3] (class symbol); at most 6.00 in assay [4] (class symbol); 6.00 to 7.00 in assay [5] (class symbol).

As for `Cc1cc2ncccc2cc1Nc1ncc2c(n1)n([C@H]1C[C@@H]3CC[C@H]1C3)c(=O)n2C` [Compound 44, 9-((1S,2S,4R)-bicyclo[2.2.1]heptan-2-yl)-7-methyl-2-((7-methylquinolin-6-yl)amino)-7,9-dihydro-8H-purin-8-one], the negative-log IC50 (pIC50) was over 9.00 in assay [1] (setting [6]); 8.00 to 9.00 in assay [2] (class symbol); 6.00 to 7.00 in assay [3] (class symbol); 6.00 to 7.00 in assay [4] (class symbol); 7.00 to 8.00 in assay [5] (class symbol).

`COC12CCC(n3c(=O)n(C)c4cnc(Nc5cn6ncnc6cc5C)nc43)(CC1)C2` [Compound 6, 9-(4-methoxybicyclo[2.2.1]heptan-1-yl)-7-methyl-2-((7-methyl-[1,2,4]triazolo[1,5-a]pyridin-6-yl)amino)-7,9-dihydro-8H-purin-8-one]: the pIC50 in assay [1] (setting [6]) is over 9.00; in assay [2] (class symbol), 7.00 to 8.00; in assay [3] (class symbol), 6.00 to 7.00; in assay [4] (class symbol) it was at most 6.00; in assay [5] (class symbol) it was 6.00 to 7.00.
